Consider 22 compounds from ChEMBL document CHEMBL1697821, “Development of a phospholipidosis database and predictive quantitative structure-activity relationship (QSAR) models” (Toxicol Mech Methods, 2008).

For the data set, the system named is Phospholipidosis. Briefly: Literature-mined public compounds from Kruhlak et al phospholipidosis modelling dataset.

As to `CC[C@]1(O)CC[C@H]2[C@@H]3CCC4=CCCC[C@@H]4[C@H]3CC[C@@]21C`, the Phospholipidosis entry is “Negative: based on the absence of positive reported data from WMDD”.
On to `CC[C@@H](C(N)=O)N1CCCC1=O`, for which the Phospholipidosis entry is listed as “Negative: based on the absence of positive reported data from WMDD”.
Then `COc1ccc(CC2c3cc(OC)c(OC)cc3CC[N+]2(C)CCC(=O)OCCCCCOC(=O)CC[N+]2(C)CCc3cc(OC)c(OC)cc3C2Cc2ccc(OC)c(OC)c2)cc1OC` (configuration not stated), with “Negative: based on the absence of positive reported data from WMDD”; and `CN(C)CCN(Cc1cccs1)c1ccccn1`, with “Negative: confirmed by electron microscopy”.
Regarding `CN1CCN(Cc2nc3cccc4c3c([n+]2[O-])-c2ccccc2-4)CC1`, the Phospholipidosis result is “Positive: weak inducer based on presence of foamy macrophages and cytoplasmic vacuolations”.
In the case of `CN(C)CCC=C1c2ccccc2CCc2c(Cl)cccc21` it was “Positive: strong inducer confirmed by electron microscopy”; in that of `CN(C)CCC=C1c2ccccc2C=Cc2c(Cl)cccc21`, “Positive: strong inducer confirmed by electron microscopy”.
Then `CCN(CC)CCn1nc2c3c(c(C)ccc31)Sc1cc(Cl)ccc1-2`, with “Positive: strong inducer confirmed by electron microscopy”; and `CCN(CC)Cc1cc(Nc2ccnc3cc(Cl)ccc23)ccc1O.Cl`, with “Positive: weak inducer based on presence of foamy macrophages and cytoplasmic vacuolations”.
In the case of `CC1(C)OCC(C(CS(=O)(=O)c2ccc(Oc3cccc(OC(F)(F)F)c3)cc2)NC=O)O1` (configuration not stated) it was “Negative: confirmed by electron microscopy”; in that of `CC1(C)C(=O)NC(=O)N1CC(COc1ccc(-c2ccc(OC(F)(F)F)cc2)cc1)NC=O` (configuration not stated), “Negative: confirmed by electron microscopy”.
As for `CC1(C)C(=O)NC(=O)N1CC(N)COc1ccc(-c2ccc(OC(F)(F)F)cc2)cc1` (configuration not stated), the Phospholipidosis result was “Positive: weak inducer based on presence of foamy macrophages and cytoplasmic vacuolations”.
Then `CCCN[C@@H]1[C@H](C)[C@@H](O)[C@](C)(O)[C@@H](CC)OC(=O)[C@H](C)[C@@H](O[C@H]2C[C@@](C)(OC)[C@@H](O)[C@H](C)O2)[C@H](C)[C@@H](O[C@@H]2O[C@H](C)C[C@H](N(C)C)[C@H]2O)[C@](C)(O)C[C@H]1C`, with “Positive: weak inducer based on presence of foamy macrophages and cytoplasmic vacuolations”; and `CCC(c1ccc2cc(OC)ccc2c1)C(C)(C)C(=O)O` (configuration not stated), with “Negative: based on the absence of positive reported data from WMDD”; and `NC[C@H]1Cc2ccc(F)cc2[C@@H](c2ccccc2)O1`, with “Positive: strong inducer confirmed by electron microscopy”.
Then `Clc1ccccc1CNC[C@H]1CC[C@H](CNCc2ccccc2Cl)CC1`, with “Positive: strong inducer confirmed by electron microscopy”.
Turning to `CC1(C)OC[C@H]([C@@H](CS(=O)(=O)c2ccc(Oc3ccc(OC(F)(F)F)cc3)cc2)N(O)C=O)O1`, the Phospholipidosis result is “Negative: confirmed by electron microscopy”.
In the case of `NCCc1cc(O)c(O)c(O)c1` it was “Positive: strong inducer confirmed by electron microscopy”; in that of `CCC[C@@H](NC(=O)N1C(=O)C(CC)(CC)[C@@H]1Oc1ccc(C(=O)N2CCN(C)CC2)cc1)c1ccc2c(c1)OCO2`, “Positive: weak inducer based on presence of foamy macrophages and cytoplasmic vacuolations”; in that of `O=P(O)(O)OCC(O)CO` (configuration not stated), “Negative: based on the absence of positive reported data from WMDD”.
Regarding `CC1(C)NC(=O)N(C[C@@H](COc2ccc(-c3ccc(OC(F)(F)F)cc3)cc2)N(O)C=O)C1=O`, the Phospholipidosis entry was “Negative: confirmed by electron microscopy”.
As for `N[C@@H](Cc1ccc(N(CCCl)CCCl)cc1)C(=O)O`, the Phospholipidosis entry was “Negative: based on the absence of positive reported data from WMDD”.
